Test results reported in patent publication US11491120B2, “Pharmacological prophylactics against stress-induced affective disorders in females” (The Trustees of Columbia University in the City of New York, priority 2017, dated 2022).
“Also recorded” adds a separate entry of the source.

Legend:
female 129S6/SvEv mice [1] = assay: Forced swim test after 10-day chronic immobilization stress (CIS); assay type: in vivo, mouse; conditions: 0.025 mg/kg, 1 week prophylactic drug
Description: The CIS procedure induces a depressive-like phenotype in test subjects and has both predictive and face validity (54). Here, we used an adapted protocol from Ramirez et al. (55).
As previously tested in male mice (18), we validated our findings in a model of chronic stress. […] Drug dosages were chosen based on results from FIG. 1 and used for the remainder of the project unless otherwise specified. One week later, a 10-day CIS protocol was administered. Subsequently, mice were tested in the FST.

female 129S6/SvEv mice [2] = assay: Contextual fear conditioning (CFC), 3-shock, freezing in training and context re-exposure; conditions: for p, Sal vs. drug, Dunnett test: Freezing (Average), Contextual Fear Conditioning Re-exposure / p, Freezing (min 1-5) / p, Freezing (min 2) / p, Freezing (min 3) / p, Freezing (min 4) / p, Freezing (min 5): 1 week prophylactic drug; for p, Freezing (min 1-5) / p, Freezing (min 2) / p, Freezing (min 3) / p, Freezing (min 4) / p, Freezing (min 5): Contextual Fear Conditioning Re-exposure
[3] = 0.025 mg/kg, 24 hours before CFC, female mice
[4] = Dunnett test Sal vs. drug (0.025)
[5] = Dunnett test Sal vs. drug (0.075)
[6] = Dunnett test Sal vs. drug (0.1)
[7] = Dunnett test Sal vs. drug (0.3)

Q: How did the “* (significance), Sal vs. drug, Fisher's PLSD: Immobility Time (min 1), Forced Swim Test Day 1” value (female 129S6/SvEv mice [1]) turn out when `N[C@@]1(c2ccccc2Cl)CCC[C@@H](O)C1=O` [(2R,6R)-HNK, (2R,6R)-hydroxynorketamine] was run?
A: The value was “*** (*** p<0.0001)”.

Q: And the “* (significance), Sal vs. drug, Fisher's PLSD: Immobility Time (min 1), Forced Swim Test Day 2” value (female 129S6/SvEv mice [1])?
A: The value was “** (** p<0.01)”.

Q: And the “* (significance), Sal vs. drug, Fisher's PLSD: Immobility Time (min 2), Forced Swim Test Day 1” value (female 129S6/SvEv mice [1])?
A: Its value is “*** (*** p<0.0001)”.

Q: And the “* (significance), Sal vs. drug, Fisher's PLSD: Immobility Time (min 3), Forced Swim Test Day 1” value (female 129S6/SvEv mice [1])?
A: Its value is “*** (*** p<0.0001)”.

Q: What about the “* (significance), Sal vs. drug, Fisher's PLSD: Immobility Time (min 4), Forced Swim Test Day 1” value (female 129S6/SvEv mice [1]) of the same compound?
A: Its value is “*** (*** p<0.0001)”.

Q: And the “* (significance), Sal vs. drug, Fisher's PLSD: Immobility Time (min 5), Forced Swim Test Day 1” value (female 129S6/SvEv mice [1])?
A: Its value is “*** (*** p<0.0001)”.

Q: And the “* (significance), Sal vs. drug, Fisher's PLSD: Immobility Time (min 5), Forced Swim Test Day 2” value (female 129S6/SvEv mice [1])?
A: Its value is “* (* p<0.05)”.

Q: What about the “* (significance), Sal vs. drug, Fisher's PLSD: Immobility Time (min 6), Forced Swim Test Day 1” value (female 129S6/SvEv mice [1]) of the same compound?
A: Its value is “*** (*** p<0.0001)”.

Q: And the “* (significance), Sal vs. drug, Fisher's PLSD: Immobility Time (min 6), Forced Swim Test Day 2” value (female 129S6/SvEv mice [1])?
A: The value was “** (** p<0.01)”.

Q: What about the “* (significance), Sal vs. drug, Fisher's PLSD: Immobility Time Average (min 3-6), Forced Swim Test Day 2” value (female 129S6/SvEv mice [1]) of the same compound?
A: The value was “* (* p<0.05)”.

Q: What about the “* (significance), Sal vs. drug, Fishers PLSD: Immobility Time Average (min 1-6), Forced Swim Test Day 1” value (female 129S6/SvEv mice [1]) of the same compound?
A: The value was “*** (*** p<0.0001)”.

Q: And the “p, Sal vs. drug, Fisher's PLSD: Immobility Time (min 1), Forced Swim Test Day 1” value (female 129S6/SvEv mice [1])?
A: Its value is less than 0.0001.

Q: And the “p, Sal vs. drug, Fisher's PLSD: Immobility Time (min 1), Forced Swim Test Day 2” value (female 129S6/SvEv mice [1])?
A: Its value is 0.0073.

Q: What about the “p, Sal vs. drug, Fisher's PLSD: Immobility Time (min 2), Forced Swim Test Day 1” value (female 129S6/SvEv mice [1]) of the same compound?
A: Its value is less than 0.0001.

Q: And the “p, Sal vs. drug, Fisher's PLSD: Immobility Time (min 2), Forced Swim Test Day 2” value (female 129S6/SvEv mice [1])?
A: Its value is 0.8092.

Q: And the “p, Sal vs. drug, Fisher's PLSD: Immobility Time (min 3), Forced Swim Test Day 1” value (female 129S6/SvEv mice [1])?
A: Its value is less than 0.0001.

Q: What about the “p, Sal vs. drug, Fisher's PLSD: Immobility Time (min 4), Forced Swim Test Day 1” value (female 129S6/SvEv mice [1]) of the same compound?
A: The value was less than 0.0001.

Q: What about the “p, Sal vs. drug, Fisher's PLSD: Immobility Time (min 5), Forced Swim Test Day 1” value (female 129S6/SvEv mice [1]) of the same compound?
A: Its value is less than 0.0001.

Q: And the “p, Sal vs. drug, Fisher's PLSD: Immobility Time (min 5), Forced Swim Test Day 2” value (female 129S6/SvEv mice [1])?
A: The value was 0.0328.

Q: What about the “p, Sal vs. drug, Fisher's PLSD: Immobility Time (min 6), Forced Swim Test Day 1” value (female 129S6/SvEv mice [1]) of the same compound?
A: The value was less than 0.0001.

Q: What about the “p, Sal vs. drug, Fisher's PLSD: Immobility Time (min 6), Forced Swim Test Day 2” value (female 129S6/SvEv mice [1]) of the same compound?
A: The value was 0.0069.

Q: And the “p, Sal vs. drug, Fisher's PLSD: Immobility Time Average (min 3-6), Forced Swim Test Day 2” value (female 129S6/SvEv mice [1])?
A: Its value is 0.0177.

Q: And the “p, Sal vs. drug, Fishers PLSD: Immobility Time Average (min 1-6), Forced Swim Test Day 1” value (female 129S6/SvEv mice [1])?
A: The value was less than 0.0001.

Q: And the “p, Sal vs. drug, Dunnett test: Freezing (Average), Contextual Fear Conditioning Re-exposure” value (“p, Sal vs. drug, Dunnett test: Freezing” for short) (female 129S6/SvEv mice [2]; 0.025 mg/kg)?
A: Its value is 0.4341.

Q: And the “Freezing / fear expression during re-exposure vs saline” value (female 129S6/SvEv mice [2]; [3])?
A: Its value is “comparable levels of freezing”.

Q: And the “Freezing / fear learning during CFC training vs saline” value (female 129S6/SvEv mice [2]; [3])?
A: The value was “comparable levels of freezing; also recorded: did not alter fear learning”.

Q: What about the “p, Sal vs. drug, Dunnett test: Freezing” value (female 129S6/SvEv mice [2]; 0.075 mg/kg) of the same compound?
A: The value was 0.9955.

Q: What about the “p, Sal vs. drug, Dunnett test: Freezing” value (female 129S6/SvEv mice [2]; 0.1 mg/kg) of the same compound?
A: Its value is 0.9257.

Q: What about the “p, Sal vs. drug, Dunnett test: Freezing” value (female 129S6/SvEv mice [2]; 0.3 mg/kg) of the same compound?
A: The value was 0.9993.

Q: What about the “p, Sal vs. drug, Dunnett test: Freezing” value (female 129S6/SvEv mice [2]; 2.5 mg/kg) of the same compound?
A: The value was 0.6274.

Q: What about the “Freezing during 3-shock CFC training vs saline” value (female 129S6/SvEv mice [2]; 10 mg/kg, 1 week before CFC, female mice) of the same compound?
A: The value was “significantly lowered freezing”.

Q: What about the “p, Sal vs. drug, Dunnett test: Freezing” value (female 129S6/SvEv mice [2]; 10 mg/kg) of the same compound?
A: Its value is 0.9991.

Q: And the “Freezing during context re-exposure vs saline” value (female 129S6/SvEv mice [2]; 3 days before CFC, female mice)?
A: The value was “do not affect freezing during re-exposure”.

Q: And the “p, Freezing (min 1-5)” value (female 129S6/SvEv mice [2]; [4])?
A: The value was 0.4341.

Q: What about the “p, Freezing (min 2)” value (female 129S6/SvEv mice [2]; [4]) of the same compound?
A: The value was 0.1669.

Q: And the “p, Freezing (min 3)” value (female 129S6/SvEv mice [2]; [4])?
A: Its value is 0.8139.

Q: And the “p, Freezing (min 4)” value (female 129S6/SvEv mice [2]; [4])?
A: The value was 0.6797.

Q: What about the “p, Freezing (min 5)” value (female 129S6/SvEv mice [2]; [4]) of the same compound?
A: Its value is 0.7607.

Q: And the “p, Freezing (min 1-5)” value (female 129S6/SvEv mice [2]; [5])?
A: The value was 0.9955.

Q: What about the “p, Freezing (min 2)” value (female 129S6/SvEv mice [2]; [5]) of the same compound?
A: Its value is greater than 0.9999.

Q: What about the “p, Freezing (min 3)” value (female 129S6/SvEv mice [2]; [5]) of the same compound?
A: The value was 0.9009.

Q: And the “p, Freezing (min 4)” value (female 129S6/SvEv mice [2]; [5])?
A: The value was 0.9994.

Q: And the “p, Freezing (min 5)” value (female 129S6/SvEv mice [2]; [5])?
A: Its value is 0.9990.

Q: And the “p, Freezing (min 1-5)” value (female 129S6/SvEv mice [2]; [6])?
A: Its value is 0.9257.

Q: What about the “p, Freezing (min 2)” value (female 129S6/SvEv mice [2]; [6]) of the same compound?
A: The value was 0.9990.

Q: And the “p, Freezing (min 3)” value (female 129S6/SvEv mice [2]; [6])?
A: The value was 0.9333.

Q: And the “p, Freezing (min 4)” value (female 129S6/SvEv mice [2]; [6])?
A: The value was 0.9679.

Q: And the “p, Freezing (min 5)” value (female 129S6/SvEv mice [2]; [6])?
A: The value was 0.8119.

Q: And the “p, Freezing (min 1-5)” value (female 129S6/SvEv mice [2]; [7])?
A: Its value is 0.9993.

Q: And the “p, Freezing (min 2)” value (female 129S6/SvEv mice [2]; [7])?
A: Its value is 0.9998.

Q: And the “p, Freezing (min 3)” value (female 129S6/SvEv mice [2]; [7])?
A: The value was 0.9954.

Q: What about the “p, Freezing (min 4)” value (female 129S6/SvEv mice [2]; [7]) of the same compound?
A: Its value is 0.9994.

Q: And the “p, Freezing (min 5)” value (female 129S6/SvEv mice [2]; [7])?
A: The value was 0.9991.

Q: What about the “p, Freezing (min 1-5)” value (female 129S6/SvEv mice [2]; Dunnett test Sal vs. drug (2.5)) of the same compound?
A: Its value is 0.6274.
